Source: US20060084652A1, “Alkylidene-tetrahydronaphthalene derivatives, process for their production and their use as anti-inflammatory agents” (priority 2004, published 2006)

Legend:
[1] = molecular target: T1, glucocorticoid receptor (GR) (Homo sapiens, UniProt P04150); assay: Binding to the glucocorticoid receptor, cytosol preparations of Sf9 cells, [3H]-dexamethasone as reference; settings: recombinant GR
T1 construct: made in house; host or cells: Sf9 cells infected with recombinant baculovirus (cytosol preparation)
T1 sequence (P04150 1-777): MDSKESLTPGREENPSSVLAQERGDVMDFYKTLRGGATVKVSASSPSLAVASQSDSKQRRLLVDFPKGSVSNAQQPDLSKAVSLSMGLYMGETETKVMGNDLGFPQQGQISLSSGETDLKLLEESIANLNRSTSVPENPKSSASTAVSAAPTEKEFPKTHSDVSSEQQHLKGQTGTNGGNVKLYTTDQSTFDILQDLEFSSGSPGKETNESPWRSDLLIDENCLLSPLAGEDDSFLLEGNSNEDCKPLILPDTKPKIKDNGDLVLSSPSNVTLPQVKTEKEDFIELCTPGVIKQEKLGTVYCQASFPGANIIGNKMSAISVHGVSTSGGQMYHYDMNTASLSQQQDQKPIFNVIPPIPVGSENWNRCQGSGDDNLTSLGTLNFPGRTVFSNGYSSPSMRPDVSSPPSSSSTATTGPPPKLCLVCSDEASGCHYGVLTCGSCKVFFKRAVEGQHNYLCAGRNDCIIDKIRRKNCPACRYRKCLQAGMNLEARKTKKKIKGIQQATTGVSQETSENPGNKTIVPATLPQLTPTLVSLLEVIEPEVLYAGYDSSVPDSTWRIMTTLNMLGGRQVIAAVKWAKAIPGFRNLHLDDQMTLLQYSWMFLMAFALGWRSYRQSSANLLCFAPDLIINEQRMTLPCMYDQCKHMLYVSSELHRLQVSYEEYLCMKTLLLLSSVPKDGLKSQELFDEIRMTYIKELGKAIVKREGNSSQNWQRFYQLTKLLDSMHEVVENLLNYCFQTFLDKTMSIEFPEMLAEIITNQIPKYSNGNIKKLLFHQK
Description: The binding of substances to the glucocorticoid receptor (GR) and other steroid-hormone receptors (mineral corticoid receptor (MR), progesterone receptor (PR) and androgen receptor (AR)) is examined with the aid of recombinantly produced receptors. Cytosol preparations of Sf9 cells, which had been infected with recombinant baculoviruses that code for the GR, are used for the binding studies. In comparison to the reference substance [^3H]-dexamethasone, the substances show a high affinity to the GR. IC50(GR)=20 nM and IC50(PR)>1 μM were measured for the compound from Example 1, and IC50(GR)=30 nM and IC50(PR)>1 μM were measured for the compound from Example 2.

[2] = system: secretion of cytokine IL-8 in monocyte cell line THP-1; assay: Inhibition of LPS-triggered IL-8 secretion in THP-1 cells (ELISA); assay type: cell-based, human
Procedure: The concentration of the cytokines was determined in the supernatant by means of commercially available ELISA kits.

Compound	IC50 [1] [nM]	efficiency relative to [3H]-dexamethasone as a standard ([2]; IL-8 inhibition, THP-1) [%]	IC50 ([2]; THP-1, supernatant ELISA, read-out: IC50(IL8)) [nM]
C/C=C1/C[C@@](O)(C(F)(F)F)[C@H](Nc2cccc3nc(C)ccc23)c2ccc(F)cc21 (relative stereo) [Example 1, (cis, Z)-4-Ethylidene-6-fluoro-1-[(2-methylquinolin-5-yl)amino]-2-(trifluoromethyl)-1,2,3,4-tetrahydronaphthalen-2-ol]	20	90	6.4
(cis, Z)-5-{[4-Ethylidene-6-fluoro-2,5-dihydroxy-2-(trifluoromethyl)-1,2,3,4-tetrahydronaphthalen-1-yl]amino}-quinolin-2(1H)-one [Example 2]	30		
